Experimental data taken from patent US11085056B2, “Transfection complexes and methods of using the same” (MOLECULAR TRANSFER, INC., priority 2015, dated 2021).

Legend:
HeLa Cells [1] = assay: Transfection of HeLa cells with DOTMA/DOPE/peptide and eGFP plasmid, fluorescent plate reader; format: cell-based; details: DOTMA/DOPE 1:1 plus peptide with RRRRRRRRRRRR (SEQ ID NO: 109) at n terminus; EF1Alpha eGFP plasmid; 0.01 mL complex; 42 hours
In short: (§1)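 Cells at 60-70% confluence got DOTMA/DOPE (1:1) mixed with peptides bearing an N-terminal R12 DNA-binding tag, complexed 10 min with EF1α-eGFP plasmid (5 μg/mL in OptiMEM); 0.01 or 0.02 mL complex per well. After 42 h at 37 °C, GFP read by fluorescence plate reader and % transfected cells by microscopy, relative to lipid without peptide.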

HuVec Cells = assay: Transfection of HuVec cells with DOTMA/DOPE/peptide and eGFP plasmid, fluorescent plate reader; format: cell-based; details: DOTMA/DOPE 1:1 plus peptide with RRRRRRRRRRRR (SEQ ID NO: 109) at n terminus; EF1Alpha eGFP plasmid; 0.01 mL complex; 42 hours
In short: as §1

NL-1 iPS Cells = assay: Transfection of NL-1 iPS cells with DOTMA/DOPE/peptide and eGFP plasmid, fluorescent plate reader; format: cell-based; details: DOTMA/DOPE 1:1 plus peptide with RRRRRRRRRRRR (SEQ ID NO: 109) at n terminus; EF1Alpha eGFP plasmid; 42 hours
C2C12 Cells = assay: Transfection of C2C12 cells with DOTMA/DOPE/peptide and eGFP plasmid, fluorescent plate reader; format: cell-based, mouse; details: DOTMA/DOPE 1:1 plus peptide with RRRRRRRRRRRR (SEQ ID NO: 109) at n terminus; EF1Alpha eGFP plasmid; 0.02 mL complex; 42 hours
In short: as §1

Human Fibroblast Cells = assay: Transfection of human fibroblast cells with DOTMA/DOPE/peptide and eGFP plasmid, fluorescent plate reader; format: cell-based; details: DOTMA/DOPE 1:1 plus peptide with RRRRRRRRRRRR (SEQ ID NO: 109) at n terminus; EF1Alpha eGFP plasmid; 0.01 mL complex; 42 hours
In short: as §1

Jurkat Cells = assay: Transfection of Jurkat cells with DOTMA/DOPE/peptide and eGFP plasmid, fluorescent plate reader; format: cell-based; details: DOTMA/DOPE 1:1 plus peptide with RRRRRRRRRRRR (SEQ ID NO: 109) at n terminus; EF1Alpha eGFP plasmid; 0.02 mL complex; 42 hours
In short: as §1

HeLa Cells [2] = assay: Transfection of HeLa cells with DOTMA/SEQ ID NO: 72/peptide compared with Lipofectamine 2000; format: cell-based; details: fusogenic peptide 0.1 mg/mL
In short: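 HeLa cells at 60–70% confluence received 0.01 mL of complexes of EF1Alpha eGFP plasmid (5 μg/mL in OptiMEM) with DOTMA/DOPE (1:1) plus R12-linked peptide, with fusogenic peptide at 0.1 mg/mL final. GFP read by fluorescence plate reader and microscopy (% cells transfected) after 42 h at 37 °C.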

some examined cell types = assay: Transfection expression and % cells transfected over the no peptide control; format: cell-based; details: on some examined cell types
In short: as §1

[3] = 0.1 μL of DOTMA/SEQ ID NO: 72/Peptide in well of a 96 well plate
[4] = 0.2 μL of DOTMA/SEQ ID NO: 72/Peptide in well of a 96 well plate
[5] = 0.3 μL of DOTMA/SEQ ID NO: 72/Peptide in well of a 96 well plate
[6] = 0.4 μL of DOTMA/SEQ ID NO: 72/Peptide in well of a 96 well plate

Substance | RF (Relative Fluorescence) of Transfection of HeLa Cells (HeLa Cells [1]) | RF (Relative Fluorescence) of Transfection of HuVec Cells (HuVec Cells) | RF (Relative Fluorescence) of Transfection of NL-1 iPS Cells (NL-1 iPS Cells) | RF (Relative Fluorescence) of Transfection of C2C12 Cells (C2C12 Cells) | RF (Relative Fluorescence) of Transfection of Human Fibroblast Cells (Human Fibroblast Cells) | RF (Relative Fluorescence) of Transfection of Jurkat Cells (Jurkat Cells) | RF (Relative Fluorescence), DOTMA/SEQ ID NO: 72/Peptide, HeLa Cells (HeLa Cells [2]; [3]) | RF (Relative Fluorescence), DOTMA/SEQ ID NO: 72/Peptide, HeLa Cells (HeLa Cells [2]; [4]) | RF (Relative Fluorescence), DOTMA/SEQ ID NO: 72/Peptide, HeLa Cells (HeLa Cells [2]; [5]) | RF (Relative Fluorescence), DOTMA/SEQ ID NO: 72/Peptide, HeLa Cells (HeLa Cells [2]; [6]) | transfection expression and the % cells transfected over the no peptide control (some examined cell types)
342 (TAGSCLRKFSTM; Peptidic transfection agent) [compound 342] | 33666 | 12804 | 11493 | 9496 | 9525 | 12825 | 41299 | 36040 | 28841 | 18351 | increased
328 (NWRHISYITRFG; Peptidic transfection agent) [compound 328] | 32528 | 3614 | 8611 | 5507 | 5641 | 4770 | 11037 | 12229 | 10801 | 10951 | increased
268 (GGFLKYTVSYDI; Peptidic transfection agent) [compound 268] | 25885 | 5403 | 15697 | 2568 | 4568 | 3236 | 10162 | 9934 | 10792 | 9519 | increased
503 (TAGSCLRKFSTMRRRRRRRRRRRR; Peptidic transfection agent) [compound 503] | 25368 | 12123 | 19014 | 3973 | 13085 | 9411 | 12827 | 20006 | 17101 | 16206 | increased
350 (SIGFRGDGQTC; Peptidic transfection agent) [compound 350] | 13313 | 13163 | 19132 | 2631 | 7105 | 9184 | 24092 | 23238 | 19802 | 22255 | increased
365 (ISRCQVCMKKRH; Peptidic transfection agent) [compound 365] | 36093 | 14764 | 6364 | 5390 | 5219 | 5298 | 26620 | 43775 | 36054 | 21540 | increased
353 (KKQRFRHRNRKGYRSQ; Peptidic transfection agent) [compound 353] | 29119 | 8772 | 9248 | 4291 | 8653 | 11107 | 36315 | 44772 | 36882 | 25802 | increased
381 (TAGSCL; Peptidic transfection agent) [compound 381] | 22652 | 17542 | 9644 | 8834 | 9953 | 10806 | 34187 | 37463 | 27007 | 20088 | increased
219 (RKRLQVQLSIRT; Peptidic transfection agent) [compound 219] | 13721 | 6237 | 5770 | 1346 | 7389 | 10762 | 12135 | 13841 | 13531 | 11712 | increased
344 (KGHRGF; Peptidic transfection agent) [compound 344] | 14415 | 11867 | 10895 | 1678 | 12704 | 10160 | 13315 | 16387 | 12564 | 12511 | increased
351 (LNRQELFPFG; Peptidic transfection agent) [compound 351] | 12279 | 15379 | 24646 | 3530 | 8061 | 9730 | 7678 | 11499 | 10575 | 8791 | increased
377 (TAGSCLRRFSTM; Peptidic transfection agent) [compound 377] | 15091 | 9326 | 5474 | 1710 | 6638 | 6785 | 39115 | 40072 | 32914 | 22457 | increased
